The values below come from ChEMBL document CHEMBL1201862, “PubChem BioAssay data set” (2004).

Structures are written as SMILES.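 Where inhibition never reached the appropriate level, the endpoint shown equals the highest concentration tested. Otherwise, values were interpolated linearly from a five-concentration, 48-hour dose response in 96-well plates. Here, GI50 denotes the concentration required for 50% inhibition of growth.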 The source made the active and inactive calls. Cut-off read from the data, not from the text of the source: active = GI50 up to about 1.1 µM and inactive = higher. A value given as a limit tells only on which side of the number the result lay.

Test systems include DMS-273; DMS-114; SNB-78; M19-MEL; LXFL 529; HOP-18; KM-20L2; XF498; RXF 631.
Assay in all cases: DTP human tumour cell line panel, 48 h

Regarding `COC(=O)C(=O)C(C(C)=O)C(=O)NCc1ccccc1` (centres undefined), the GI50 in the assay with DMS-273, in the assay with DMS-114, in the assay on SNB-78, with M19-MEL, with LXFL 529 and with HOP-18 was > 100 µM (inactive) in each case. Also, the GI50 in the assay on KM-20L2 and in the assay on XF498 was > 100 µM (inactive) throughout.

In the case of `COc1ccc(C(=O)Cc2c(C(=O)c3ccccc3)c3ccccc3n2C(=O)c2ccccc2)cc1`, the GI50 in the assay on DMS-273 was 5.38 µM (inactive); in the assay with DMS-114, 50.7 µM (inactive); with M19-MEL it was > 100 µM (inactive); in the assay with LXFL 529, 67.6 µM (inactive); with KM-20L2, > 100 µM (inactive); in the assay on XF498 it was > 100 µM (inactive).

As to `CC1(c2ccc(F)cc2)C2C(=O)NC(=O)C1C(=O)NC2=O` (centres undefined), the GI50 in the assay with DMS-273, with DMS-114, in the assay on SNB-78, in the assay with M19-MEL, in the assay with LXFL 529 and in the assay on KM-20L2 was > 100 µM (inactive) in each case. Moreover, the GI50 with XF498 was > 100 µM (inactive).

Turning to `Cc1cc(N(CCC#N)CCC#N)ccc1/C=C1N=C(/C=C/c2ccccc2)N(c2ccc(S(N)(=O)=O)cc2)C\1=O`, the GI50 in the assay with DMS-114, with SNB-78, in the assay with M19-MEL, in the assay on LXFL 529, in the assay on KM-20L2 and with RXF 631 was > 100 µM (inactive) each time.

With `O=C(Cc1ccccc1)N/N=C(\C1=Nc2ccc([N+](=O)[O-])cc2NC1O)C(O)c1ccc([N+](=O)[O-])cc1` (centres undefined), the GI50 was > 100 µM (inactive) in the assay on SNB-78; > 100 µM (inactive) in the assay on M19-MEL; 42.6 µM (inactive) in the assay on LXFL 529; > 100 µM (inactive) in the assay with HOP-18; > 100 µM (inactive) with KM-20L2; > 100 µM (inactive) with XF498. For the same molecule, the GI50 with RXF 631 was > 100 µM (inactive).

Regarding `Cc1ccc(C(=O)N(C(C)C)C(C)C)cc1/N=N/N(C)C`, the GI50 with DMS-273 is > 100 µM (inactive); in the assay with SNB-78, 35.9 µM (inactive); with M19-MEL, > 100 µM (inactive); in the assay on LXFL 529, 31.2 µM (inactive); with KM-20L2, > 100 µM (inactive).

As for `CC1=NN(c2ccccc2)C(=O)C1=C1SCCS1`, the GI50 in the assay with DMS-273 is > 58.3 µM (inactive); in the assay on DMS-114, > 46.3 µM (inactive); in the assay on SNB-78 it was > 100 µM (inactive); in the assay with M19-MEL, 41.8 µM (inactive); in the assay on LXFL 529, > 67.9 µM (inactive); in the assay with HOP-18, 36.3 µM (inactive). Moreover, the GI50 was > 65.6 µM (inactive) with KM-20L2, 32.7 µM (inactive) in the assay with XF498 and > 89.7 µM (inactive) with RXF 631.

In the case of `BrC1(Br)C2/C=C\CCCCC21` (centres undefined), the GI50 with DMS-273, in the assay on SNB-78, in the assay with M19-MEL, in the assay with LXFL 529, in the assay with HOP-18 and in the assay with KM-20L2 was > 100 µM (inactive) each time. For the same molecule, the GI50 in the assay on XF498 was > 100 µM (inactive).

Consider `Cc1c(C(=O)/C=C/c2ccco2)[n+]([O-])c2ccccc2[n+]1[O-]`, for which the GI50 in the assay with DMS-273 is > 100 µM (inactive); in the assay on DMS-114, 73.5 µM (inactive); in the assay on SNB-78, > 100 µM (inactive); in the assay with M19-MEL, > 100 µM (inactive); in the assay on LXFL 529 it was > 100 µM (inactive); with HOP-18 it was > 100 µM (inactive). Further, the figures for the GI50 in the assay on KM-20L2, with XF498 and in the assay with RXF 631 were > 100 µM (inactive), > 100 µM (inactive) and 18.6 µM (inactive), respectively.

In the case of `CN(C)CCNC(=O)c1cccc2c1nc(-c1ccncc1)c1ccccc12`, the concentration for 50% growth inhibition (GI50) in the assay with DMS-273 is 0.767 µM (active); with DMS-114, 2.84 µM (inactive); in the assay on SNB-78 it was 5.9 µM (inactive); in the assay with M19-MEL it was 2.82 µM (inactive); with HOP-18 it was 9.91 µM (inactive).

On to `Oc1cc(-c2ccccn2)nc2cccc(F)c12`, for which the GI50 is > 100 µM (inactive) in the assay with DMS-114; > 100 µM (inactive) in the assay with SNB-78; > 100 µM (inactive) in the assay on M19-MEL; 74.1 µM (inactive) with LXFL 529; > 100 µM (inactive) in the assay with HOP-18; > 100 µM (inactive) in the assay with KM-20L2. The GI50 in the assay with RXF 631 was > 100 µM (inactive).

On to `CCOc1ccc2c(c1)[n+]([O-])c(S(=O)(=O)c1ccc(C)cc1)c(N)[n+]2[O-]`, for which the GI50 in the assay on DMS-114, in the assay on SNB-78, in the assay with M19-MEL, with LXFL 529, in the assay on HOP-18 and with KM-20L2 was > 100 µM (inactive) each time.

`Cc1ccc(Oc2ccc(C)cc2N)cc1`: the GI50 in the assay on DMS-273 is 75 µM (inactive); in the assay with DMS-114, 49.4 µM (inactive); in the assay on SNB-78 it was 75.5 µM (inactive); in the assay with M19-MEL it was > 100 µM (inactive); with LXFL 529 it was > 100 µM (inactive); with HOP-18, > 100 µM (inactive). The GI50 in the assay on KM-20L2 is > 100 µM (inactive).

`CCCN1CC=CCC1`: the GI50 in the assay with DMS-114, in the assay with M19-MEL, in the assay with LXFL 529, with HOP-18, with KM-20L2 and in the assay with XF498 was > 100 µM (inactive) in each case.

As to `O=[N+]([O-])c1cccc(C2=NOC3C4CCC(C4)C23)c1` (centres undefined), the GI50 with DMS-273, with DMS-114, in the assay on M19-MEL, in the assay on LXFL 529, in the assay on HOP-18 and with RXF 631 was > 100 µM (inactive) each time.

As to `COc1ccc2nc(-c3ccc(OCc4ccccc4)cc3)ccc2c1`, the GI50 in the assay with DMS-114, with SNB-78, in the assay on M19-MEL, in the assay with LXFL 529, in the assay on HOP-18 and in the assay on KM-20L2 was > 100 µM (inactive) each time. Further, the GI50 with XF498 was > 100 µM (inactive).

Turning to `CCC1CN2CCc3c([nH]c4ccccc34)C2C[C@@H]1CC(=O)N(C)C` (some centres undefined), the GI50 in the assay on DMS-273, in the assay on DMS-114, with SNB-78, in the assay with M19-MEL, with LXFL 529 and with HOP-18 was > 100 µM (inactive) throughout. Moreover, the GI50 with KM-20L2 and in the assay with XF498 was > 100 µM (inactive) each time.

As for `COc1ccc2c(NCCCCCCNc3c4ccccc4nc4cc(OC)ccc34)c3ccccc3nc2c1`, the 50% growth inhibitory concentration (GI50) with DMS-273 was 0.0313 µM (active); in the assay with DMS-114, 0.1 µM (active); in the assay on SNB-78 it was 0.12 µM (active); with M19-MEL it was 0.0484 µM (active); with LXFL 529 it was 0.04 µM (active); with HOP-18, 2.15 µM (inactive). The figures for the GI50 in the assay on KM-20L2 and with RXF 631 were 0.065 µM (active) and 0.126 µM (active), respectively.

Turning to `CC1C2=CC=C(O2)C(C)(C)C2=CC=C(O2)C(C)(C)C2=CC=C(O2)C(C)(C)C2=CC=C1O2`, the GI50 in the assay with DMS-273, in the assay with SNB-78, in the assay with M19-MEL, with LXFL 529, with HOP-18 and with KM-20L2 was > 100 µM (inactive) each time. Further, in the assay with XF498, the GI50 was > 100 µM (inactive).

`C#CCN(N=O)C(=O)NC(CCCCNC(=O)OCc1ccccc1)C(=O)OCc1ccccc1` (centres undefined): the GI50 in the assay with DMS-273 is 43.9 µM (inactive); in the assay on DMS-114, 19.8 µM (inactive); with SNB-78, 34.1 µM (inactive); in the assay on M19-MEL it was 34.2 µM (inactive); in the assay on LXFL 529 it was 17 µM (inactive); with HOP-18, 20 µM (inactive). In addition, the GI50 in the assay with KM-20L2 is 54.6 µM (inactive).

Consider `O=C(O)CNS(=O)(=O)c1ccc(NCc2ccccc2)cc1`, for which the GI50 in the assay with DMS-273, with DMS-114, in the assay with SNB-78, in the assay with M19-MEL, in the assay with LXFL 529 and with HOP-18 was > 100 µM (inactive) throughout. For the same molecule, the GI50 in the assay on KM-20L2 and in the assay on XF498 was > 100 µM (inactive) throughout.

Consider `CCc1cccc(C(C)CC)c1NC(=O)C(=O)Cc1nc2ccccc2o1` (centres undefined), for which the GI50 in the assay with DMS-273, with DMS-114, in the assay on SNB-78, in the assay with M19-MEL, in the assay with LXFL 529 and in the assay with KM-20L2 was > 50 µM (inactive) each time. In addition, the GI50 with XF498 was > 50 µM (inactive).

Consider `O=C1C(Cl)=C(N2CCN(C3=C(Cl)C(=O)c4ccccc4C3=O)CC2)C(=O)c2ccccc21`, for which the GI50 in the assay with DMS-273 is 2.14 µM (inactive); with DMS-114, 1.34 µM (inactive); in the assay on SNB-78, 0.61 µM (active); in the assay on M19-MEL, 1.53 µM (inactive); in the assay with LXFL 529 it was 0.297 µM (active); in the assay with KM-20L2, 3.78 µM (inactive). The GI50 in the assay with XF498 was 1.36 µM (inactive); in the assay with RXF 631, 1.85 µM (inactive).

On to `COC(=O)CCC(NC(=S)N/N=C(\C)c1cnc2ccccc2n1)C(=O)OC` (centres undefined), for which the GI50 in the assay with DMS-273 is 38.5 µM (inactive); with SNB-78, > 100 µM (inactive); in the assay with LXFL 529 it was 29.9 µM (inactive); in the assay with HOP-18, 39.4 µM (inactive); in the assay with KM-20L2 it was 15.5 µM (inactive); with XF498, > 100 µM (inactive). The GI50 with RXF 631 was 52.6 µM (inactive).

As for `COc1ccc2oc3c4c2c1CCC4CCC3=O` (centres undefined), the GI50 in the assay with DMS-273, in the assay on DMS-114, with SNB-78, in the assay with M19-MEL, with LXFL 529 and in the assay with XF498 was > 100 µM (inactive) each time. Further, in the assay on RXF 631, the GI50 is > 100 µM (inactive).

Turning to `Cc1cc(Cl)ccc1NC(=O)C(=O)Cc1occc(=O)c1O`, the GI50 with DMS-273, with DMS-114, with SNB-78, with M19-MEL, in the assay with LXFL 529 and with HOP-18 was > 100 µM (inactive) in each case. Further, the GI50 with KM-20L2, in the assay with XF498 and in the assay on RXF 631 was > 100 µM (inactive) each time.
